Measured values reported in patent publication US7589080B2, “β-cyclodextrin compositions, and use to prevent transmission of sexually transmitted diseases” (priority 2000, dated 2009).

Key:
Assay type in all cases: cell-based
[1] = system: LFA-1 binding to ICAM-1 triggered through CXCR4; assay: SDF-1α-induced cell adhesion assay; conditions: Jurkat cells treated with 20 mM
Method: Cell adhesion assays were carried out essentially as previously described (Liao et al., supra, 2000). The wells of 96 well plates were coated with recombinant ICAM-Ig and blocked as described. Jurkat cells were labeled with horseradish peroxidase (HRP) and treated with either 20 mM 2-OH-βCD or medium alone as described above. The cells were then washed and resuspended in cRPMI at a density of 2×10^6/ml. One hundred Tl of cells were added to the wells along with cRPMI alone or medium containing 10 ng/ml of SDF-1α. The wells were incubated at 37° C. for various times before washing to remove unbound cells. Bound cells were lysed and HRP measured as described previously. A standard curve was generated by from known numbers of labeled cells lysed and quantitated by measuring HRP.
Loss of CXCR function in regulating LFA-1 could also explain the lower binding of HIV-1 to βCD-treated cells observed previously (Liao et al., supra, 2000; Orentas and Hildreth, supra, 1993). […] The ability of βCD treatment of cells to affect control of LFA-1 function by CXCR4 also was examined. Jurkat cells were treated with 2-OH-βCD or medium alone, then were added to the wells of culture plates coated with soluble recombinant ICAM-Ig. SDF-1, a CXCR4-specific chemokine that triggers LFA-1 function, was added to trigger binding of LFA-1 to ICAM-1. […]

[2] = system: CD4+ HIV-susceptible target cells; assay: Cell viability, growth and function after 2-OH-βCD treatment
Description: The role of lipid rafts in the HIV-1 fusion process was examined by treating CD4+HIV-susceptible target cells with 2-OH-βCD to deplete membrane cholesterol and disperse lipid rafts.
Loss of CXCR function in regulating LFA-1 could also explain the lower binding of HIV-1 to βCD-treated cells observed previously (Liao et al., supra, 2000; Orentas and Hildreth, supra, 1993). […] The ability of βCD treatment of cells to affect control of LFA-1 function by CXCR4 also was examined. Jurkat cells were treated with 2-OH-βCD or medium alone, then were added to the wells of culture plates coated with soluble recombinant ICAM-Ig. SDF-1, a CXCR4-specific chemokine that triggers LFA-1 function, was added to trigger binding of LFA-1 to ICAM-1. Control cells responded to SDF-1 and, as expected, bound very well to ICAM-Ig. […] CXCR4-specific gp120 triggers the same responses through CXCR4 as SDF-1 (Iyengar et al., J. Immunol. 162:6263-6267, 1999).
βCD treatment blocks HIV-1 virus infection. HIV-1 can spread in cell cultures without necessarily exerting cytopathic effects. […] To test the effects of cholesterol depletion on HIV-1 infection of primary T cells by free virus, PHA blasts were treated with 10 mM 2-OH-βCD or medium alone, then were exposed to HIV-1 for 2 hr before washing to remove input virus. Viability and growth of the PHA blasts was not affected by treatment with the βCD under the conditions used. P24 release was measured after an addition 6 days in culture. Two primary strains of HIV-1, 97.099 and 97.534, M-tropic (R5) and dual-tropic (X4R5), respectively, were tested.
The effects of βCD treatment on HIV infectivity were measured in a sensitive single-cycle infection assay based on a cell line transfected with an LTR-luciferase cassette. […] Quantitative measurements of single round infection are obtained with this assay system (Roos et al., Virology 273:307-315, 2000, which is incorporated herein by reference). Viability of LuSIV cells as determined by trypan blue exclusion and proliferation was not affected by 2-OH-βCD treatment. βCD treatment of LuSIV cells reduced HIV infection by almost 100%, and the effects were readily seen at all viral input levels.

HIV-infected H9 cells = assay: Syncytium assay with HIV-1 infected cells; conditions: for Syncytia (/HPF): with HIV-infected H9 cells
Method: Syncytium assays were carried out essentially as previously described (Hildreth and Orentas, supra, 1989). Briefly, cell lines or PHA blasts were treated with 20 mM 2-OH-βCD in RPMI 1640 or medium alone for 1 hr at 37° C. before washing twice with PBS. The treated cells were then mixed with HIV-1 infected cells, each at density of 2×10^6/ml, in cRPMI and incubated at 37° C. Syncytia were scored and photographed 3 to 6 hr after mixing. For free-virus mediated syncytium assays (“fusion from without”), HIV-1RF from infected PM1 culture supernatants were clarified by 0.45 Tm filtration (p24 concentration greater than 500 ng/ml). 2-OH-βCD-treated and non-treated cell lines were added to the virus preparations and incubated at 37° C. for 3 hr before counting syncytia.
CD4+SupTl T cells formed numerous large syncytia within 3 hr after the addition of HIV-1MN-infected H9 cells. […] No syncytia were apparent in this culture for more than 15 hr, which can reflect the recovery time for cholesterol in the βCD treated T cells. 2-OH-βCD was washed out after the 1 hr treatment and was not present during the co-cultivation step. As such, the effects are not a result of a steric blockade by 2-OH-βCD, which can bind to cells.
The effect of βCD treatment on HIV-induced fusion of several other cell lines also was examined. Four CD4+, CXCR4+cell lines, SupT1, H9, PM1, and MT2, were treated with 2-OH-βCD and tested for syncytium formation with HIV-1-infected cells.

In the case of “2-hydroxypropyl-β-cyclodextrin [2-OH-βCD]”, the “Binding of Jurkat cells to ICAM-Ig after exposure to SDF-1” value [1] was “no binding to ICAM-Ig”, the “Viability and growth of the PHA blasts” value ([2]; 10 mM) was “not affected” and the “Cell viability by Trypan Blue exclusion” value ([2]; 10 to 20 mM for 1 hr at 37° C) was “without any loss in cell viability”. The Cell viability ([2]; Jurkat cells, adhesion assay) was “no effect on cell viability”, the “Viability of LuSIV cells by trypan blue exclusion and proliferation” value ([2]; LuSIV cells) was “not affected” and the “Cell growth after treatment” value ([2]; placed back into culture in cholesterol-containing medium) was “continued to grow normally”. The “Ca2+ flux responses to anti-CD3 MAb” value ([2]; treated Jurkat cells) was “still showed Ca^2+ flux responses”, the “Syncytium formation of SupT1 cells with HIV-1MN-infected H9 cells” value (HIV-infected H9 cells; 1 hr treatment, washed out before co-cultivation) was “completely inhibited” and the “Syncytia (/HPF)” value (HIV-infected H9 cells; H9 cells treated with 20 mM) was 0 /HPF. For the same substance, the “Syncytia (/HPF)” value (HIV-infected H9 cells; MT2 cells treated with 20 mM) was 0 /HPF, the “Syncytia (/HPF)” value (HIV-infected H9 cells; PM1 cells treated with 20 mM) was 0 /HPF and the “Syncytium formation with HIV-1-infected cells” value (HIV-infected H9 cells; SupT1, H9, PM1 and MT2 cell lines, in each case) was “completely blocked”. The “Syncytia (/HPF)” value (HIV-infected H9 cells; SupT1 cells treated with 20 mM) was 0 /HPF and the “Time without apparent syncytia” value (HIV-infected H9 cells; treated SupT1 cells with HIV-1MN-infected H9 cells) was “more than 15 hr”.
